The values below come from patent US20240174669A1, “CRYSTALLINE FORMS OF A PARP1 INHIBITOR” (XinThera, Inc., priority 2022, published 2024).

The nature of this series: Solubility estimation at RT by visual observation in solvent systems. Format: physicochemical. To be noted: organic solvent or mixture, thermodynamic from solid. As for the experimental part:
The solubility of compound 1 was estimated at RT by visual observation in 11 solvent systems. Approximately 5 mg solids were weighed into 8 mL glass vial, and then solvent was added stepwise until solids were dissolved completely or a total of solvent volume reached 5 mL. […] The solubility was estimated and for reference only.

In brackets after ≈: the same amount, converted by molar mass.

As for `CNC(=O)c1ccc(N2CCN(Cc3cnc4cc(C5CC5)c(=O)[nH]c4c3)CC2)cn1` [Starting material, 5-(4-((7-cyclopropyl-6-oxo-5,6-dihydro-1,5-naphthyridin-3-yl)methyl)piperazin-1-yl)-N-methylpicolinamide], the solubility is, setting by setting: (most of the 11 tested solvent systems, RT, most tested solvents, except DMSO) < 5000 µg/mL; (estimated at RT, visual observation, DMSO) 20000 to 50000 µg/mL (≈ 47.8 to 119 mM); (estimated at RT, Acetone, ACN, Toluene, EA, n-Heptane, Water, Anisole, DCM, THF) < 1000 µg/mL; (estimated, visual observation, MeOH, THF (50° C.)) 1000 to 5000 µg/mL (≈ 2.39 to 11.9 mM).

Broadly, the solubility is the concentration that dissolves in the medium under given conditions.
